From patent US20240365784A1, “AZOLE COMPOUNDS FOR CONTROLLING INVERTEBRATE PESTS” (FMC Corporation, priority 2021, published 2024)

Tests used:
Assay type in all cases: in vivo
[1] = tested on: corn planthopper (Peregrinus maidis (Ashmead)); assay: whole plant or invertebrate; conditions: 144 h, corn plant, nymphs, assessed after 6 days; for mortality at 50 ppm: sprayed at 50 ppm; for mortality at 10 ppm: sprayed at 10 ppm
Protocol: (§1) Test compounds were formulated using a solution containing 10% acetone, 90% water and 300 ppm Activator 90® non-ionic surfactant (Loveland Products, Loveland, Colorado, USA). The formulated compounds were applied in 1 mL of liquid through an atomizer nozzle positioned 1.27 cm (0.5 inches) above the top of each test unit. Test compounds were sprayed at the rates indicated, and each test was replicated three times.
For evaluating control of corn planthopper (Peregrinus maidis (Ashmead)) through contact and/or systemic means, the test unit consisted of a small open container with a 3-4-day-old corn (maize) plant inside. White sand was added to the top of the soil prior to application of the test compound.
(§2) Test compounds were formulated and sprayed at 250 and/or 50 ppm and/or 10 ppm. After spraying of the formulated test compound, the test units were allowed to dry for 1 h before they were post-infested with ˜15-20 nymphs (18-to-21-day-old). A black, screened cap was placed on the top of each test unit, and the test units were held for 6 days in a growth chamber at 22-24° C. and 50-70% relative humidity. Each test unit was then visually assessed for insect mortality.

[2] = tested on: green peach aphid (Myzus persicae (Sulzer)); assay: whole plant or invertebrate; conditions: 144 h, sprayed at 50 ppm, radish plant, assessed after 6 days
Protocol: as §1
For evaluating control of green peach aphid (Myzus persicae (Sulzer)) through contact and/or systemic means, the test unit consisted of a small open container with a 12-15-day-old radish plant inside. This was pre-infested by placing on a leaf of the test plant 30-40 aphids on a piece of leaf excised from a culture plant (cut-leaf method). The aphids moved onto the test plant as the leaf piece desiccated. After pre-infestation, the soil of the test unit was covered with a layer of sand.
Test compounds were formulated and sprayed at 250 and/or 50 ppm. After spraying of the formulated test compound, each test unit was allowed to dry for 1 hour and then a black, screened cap was placed on top. The test units were held for 6 days in a growth chamber at 19-21° C. and 50-70% relative humidity. Each test unit was then visually assessed for insect mortality.

[3] = tested on: cotton melon aphid (Aphis gossypii (Glover)); assay: whole plant or invertebrate; conditions: 144 h, okra plant, assessed after 6 days; for mortality at 50 ppm: sprayed at 50 ppm; for mortality at 10 ppm: tested at 10 ppm
Protocol: as §1
For evaluating control of cotton melon aphid (Aphis gossypii (Glover)) through contact and/or systemic means, the test unit consisted of a small open container with a 5-day-old okra plant inside. This was pre-infested with 30-40 insects on a piece of leaf according to the cut-leaf method, and the soil of the test unit was covered with a layer of sand.
[…] After spraying, the test units were maintained in a growth chamber for 6 days at 19° C. and 70% relative humidity. Each test unit was then visually assessed for insect mortality.

[4] = tested on: sweetpotato whitefly (Bemisia tabaci (Gennadius)); assay: whole plant or invertebrate; conditions: 312 h, cotton plant infested with eggs, assessed after 13 days; for mortality at 50 ppm: sprayed at 50 ppm; for mortality at 10 ppm: tested at 10 ppm
Protocol: as §1
For evaluating control of the sweetpotato whitefly (Bemisia tabaci (Gennadius)) through contact and/or systemic means, the test unit consisted of a small open container with a 12-14-day-old cotton plant inside. Prior to the spray application, both cotyledons were removed from the plant, leaving one true leaf for the assay. Adult whiteflies were allowed to lay eggs on the plant and then were removed from the test unit. Cotton plants infested with at least 15 eggs were submitted to the test for spraying.
[…] After spraying, the test units were allowed to dry for 1 hour. The cylinders were then removed, and the units were taken to a growth chamber and held for 13 days at 28° C. and 50-70% relative humidity. Each test unit was then visually assessed for insect mortality.

[5] = tested on: Brown Planthopper (Nilaparvata lugens (Stil)); assay: Test F: control of Brown Planthopper, spray, contact and/or systemic; conditions: 120 h, sprayed at 10 ppm, rice stems, nymphs, assessed after 5 days
Protocol: as §1
For evaluating control of Brown Planthopper (Nilaparvata lugens (Stil)) through contact and/or systemic means, the test unit consisted of a small open container with 6-10 25-day-old rice stems inside. White sand was added to the top of the soil prior to application of the test compound.
as §2, with “at” for “at 250 and/or”, “(15-to-17-day-old).” for “(18-to-21-day-old).”, “5” for “6”, “28°” for “22-24°”, “65%” for “50-70%”

| Compound | mortality at 50 ppm [1] | mortality at 50 ppm [2] | mortality at 50 ppm [3] | mortality at 50 ppm [4] | mortality at 10 ppm [1] | mortality at 10 ppm [4] | mortality at 10 ppm [3] | mortality at 10 ppm [5] |
| --- | --- | --- | --- | --- | --- | --- | --- | --- |
| CC(c1ccc(SC(F)(F)F)cc1)c1c(Cl)cncc1-n1cncn1 (stereo not drawn) [Compound 51] | ≥ 80% | ≥ 80% | ≥ 80% | ≥ 70% |  |  |  |  |
| FC(F)(F)Sc1ccc(Cc2c(Cl)cncc2-c2nccs2)cc1 [Compound 35] | ≥ 80% |  | ≥ 80% | ≥ 70% |  |  |  |  |
| FC(F)(F)Oc1ccc(Cc2c(Cl)cncc2-n2nccn2)cc1Br [Compound 68] | ≥ 80% | ≥ 80% |  | ≥ 70% | ≥ 80% | ≥ 70% |  |  |
| [O-][S+](c1ccc(Cc2c(Cl)cncc2-n2nccn2)cc1)C(F)(F)F (stereo not drawn) [Compound 22] |  | ≥ 80% | ≥ 80% | ≥ 70% |  |  |  |  |
| Fc1cc(Cc2c(F)cncc2-n2nccn2)ccc1OC(F)(F)F [Compound 66] | ≥ 80% |  | ≥ 80% | ≥ 70% | ≥ 80% |  | ≥ 80% |  |
| CC(c1ccc(SC(F)(F)F)cc1)c1c(F)cncc1-c1nccs1 (stereo not drawn) [Compound 54] | ≥ 80% |  | ≥ 80% | ≥ 70% | ≥ 80% |  |  |  |
| FC(F)(F)Oc1ccc(Cc2c(Cl)cncc2-n2nccn2)cc1 [Compound 12] | ≥ 80% | ≥ 80% | ≥ 80% |  | ≥ 80% |  |  |  |
| FC(F)Oc1ccc(Cc2c(Cl)cncc2-n2nccn2)cc1 [Compound 46] | ≥ 80% |  | ≥ 80% | ≥ 70% | ≥ 80% | ≥ 70% |  |  |
| Fc1cncc(-c2ncco2)c1Cc1ccc(OC(F)(F)F)cc1 [Compound 41] | ≥ 80% |  | ≥ 80% |  | ≥ 80% |  | ≥ 80% |  |
| CC(c1ccc(OC(F)(F)F)cc1)c1c(F)cncc1-c1nccs1 (stereo not drawn) [Compound 63] | ≥ 80% | ≥ 80% | ≥ 80% | ≥ 70% | ≥ 80% |  | ≥ 80% |  |
| [O-][S+](c1ccc(Cc2c(F)cncc2-n2nccn2)cc1)C(F)(F)F (stereo not drawn) [Compound 18] | ≥ 80% | ≥ 80% | ≥ 80% | ≥ 70% |  |  |  |  |
| CC(c1ccc(SC(F)(F)F)cc1)c1c(F)cncc1-n1cccn1 (stereo not drawn) [Compound 50] | ≥ 80% |  | ≥ 80% |  |  |  |  |  |
| Fc1cncc(-c2nccs2)c1Cc1ccc(OC(F)(F)F)cc1 [Compound 40] | ≥ 80% |  | ≥ 80% | ≥ 70% | ≥ 80% | ≥ 70% | ≥ 80% |  |
| Fc1cncc(-n2nccn2)c1Cc1ccc(OC(F)(F)F)cc1 [Compound 1, 3-fluoro-5-(triazol-2-yl)-4-[[4(trifluoromethoxy)phenyl]methyl]pyridine] | ≥ 80% | ≥ 80% |  | ≥ 70% | ≥ 80% |  |  | ≥ 80% |
| FC(F)(F)Oc1ccc(Cc2c(I)cncc2-n2nccn2)cc1 [Compound 17] |  |  | ≥ 80% | ≥ 70% |  |  |  |  |
| CCC(c1ccc(SC(F)(F)F)cc1)c1c(F)cncc1-n1nccn1 (stereo not drawn) [Compound 57] | ≥ 80% |  | ≥ 80% | ≥ 70% | ≥ 80% | ≥ 70% |  |  |
| Fc1cncc(-n2nccn2)c1Cc1ccc(OC(F)(F)F)c(Br)c1 [Compound 69] | ≥ 80% | ≥ 80% | ≥ 80% | ≥ 70% | ≥ 80% |  |  |  |
